# Laboratory results taken from PMC7504466, “In-Vitro and In-Silico Evaluations of Heterocyclic-Containing Diarylpentanoids as Bcl-2 Inhibitors Against LoVo Colorectal Cancer Cells” (Molecules, 2020).
# Experiments:
# [1] = test system: SW620 cells; experiment: MTT cytotoxicity assay, SW620 cells; type: cell-based; conditions: Homo sapiens, SW-620, 72 h post-treatment, read-out: IC50 (µM) KRAS SW620
# Experimental: (§1) The in-vitro cytotoxic activity of the synthesized compounds on seven human CRC cell lines including KRAS (T84, SW620, LoVo) and BRAF (HT29, NCI-H508, RKO and LS411N) mutated cells were determined by MTT assay as previously described. The IC50 values obtained are summarized in Table 2 in which 5-FU and normal human dermal fibroblasts (NHDF) were used as controls. Meanwhile, a heatmap (Figure 3) was also generated using GraphPad Prism v7.0 (GraphPad Software, La Jolla, CA, USA) to visualize the cytotoxic trends of synthesized compounds graphically.
# (§2) A panel of KRAS (T84, SW620 and LoVo) and BRAF (HT29, NCI-H508, RKO and LS411N) mutated human CRC cell lines were grown in Dulbecco’s modified Eagle’s medium (DMEM) containing 10% fetal bovine serum (FBS) and 1% penicillin/streptomycin at 37 °C under 5% CO2 while NHDF cells were cultured in DMEM with 5% FBS under the same condition. The culture medium was replenished every two days until the cells reached 80–90% confluency for further usage. All cell lines (T84, ATCC®CCL-248™; SW620, ATCC®CCL-227™; LoVo, ATCC®CCL-229™; HT-29, ATCC®HTB-38; NCI-H508, ATCC®CCL-253™; RKO, ATCC®CRL-2577; LS411N, ATCC®CRL-2159; NHDF, ATCC® PCS-201-010™) were purchased from American Type culture Collections (ATCC, Manassas, VA, USA).
# (§3) LoVo cells (1.5–5 × 10^3 cells/well) were seeded into a 96 well plate and incubated at 37 °C and 5% CO2 atmosphere for 24 h. On the following day, the cell media were replaced with 100 µL of test compounds at various concentration. The final concentration of DMSO in the well is 0.1%. After 72 h of incubation, culture medium was removed and 100 µL of MTT (thiazoyl blue tertrazolium bromide) solution (0.5 mg/mL in culture media) was added. The resultant plates were then further incubated at 37 °C for 4 h. Upon completion, the MTT solution was removed and the formazan salts formed were dissolved in 100 µL of DMSO. The absorbance was recorded with a microplate reader at 570 nm. The IC50 values of tested compounds were calculated from three independent experiments.
# [2] = test system: human CRC cell lines (T84, SW620, LoVo, HT29, NCI-H508, RKO, LS411N); experiment: MTT cytotoxicity assay, panel of KRAS- and BRAF-mutated CRC cell lines; type: cell-based; conditions: several CRC cell lines, read-out: IC50 against several CRC cell lines
# Experimental: as §1
# A panel of KRAS (T84, SW620 and LoVo) and BRAF (HT29, NCI-H508, RKO and LS411N) mutated human CRC cell lines were grown in Dulbecco’s modified Eagle’s medium (DMEM) containing 10% fetal bovine serum (FBS) and 1% penicillin/streptomycin at 37 °C under 5% CO2 while NHDF cells were cultured in DMEM with 5% FBS under the same condition. The culture medium was replenished every two days until the cells reached 80–90% confluency for further usage. […]
# LoVo cells (1.5–5 × 10^3 cells/well) were seeded into a 96 well plate and incubated at 37 °C and 5% CO2 atmosphere for 24 h. […] The absorbance was recorded with a microplate reader at 570 nm. The IC50 values of tested compounds were calculated from three independent experiments.
# [3] = test system: LS411N cells; experiment: MTT cytotoxicity assay, LS411N cells; type: cell-based; conditions: Homo sapiens, LS-411N, 72 h post-treatment, read-out: IC50 (µM) BRAF LS411N
# Experimental: as §1, §2, §3
# [4] = test system: RKO cells; experiment: MTT cytotoxicity assay, RKO cells; type: cell-based; conditions: Homo sapiens, 72 h post-treatment, read-out: IC50 (µM) BRAF RKO
# Experimental: as §1, §2, §3
# [5] = test system: LoVo cells; experiment: MTT cytotoxicity assay, LoVo cells; type: cell-based; conditions: Homo sapiens, 72 h post-treatment, read-out: IC50 (µM) KRAS LoVo
# Experimental: as §1, §2, §3
# [6] = test system: T84 cells; experiment: MTT cytotoxicity assay, T84 cells; type: cell-based; conditions: Homo sapiens, 72 h post-treatment, read-out: IC50 (µM) KRAS T84
# Experimental: as §1, §2, §3
# [7] = test system: HT29 cells; experiment: MTT cytotoxicity assay, HT29 cells; type: cell-based; conditions: Homo sapiens, HT-29, 72 h post-treatment, read-out: IC50 (µM) BRAF HT29
# Experimental: as §1, §2, §3
# [8] = test system: normal human dermal fibroblasts (NHDF); experiment: MTT cytotoxicity assay, normal human dermal fibroblasts; type: cell-based; conditions: 72 h post-treatment
# Experimental: as §1, §2, §3
# [9] = test system: NCI-H508 cells; experiment: MTT cytotoxicity assay, NCI-H508 cells; type: cell-based; conditions: Homo sapiens, 72 h post-treatment, read-out: IC50 (µM) BRAF NCI-H508
# Experimental: as §1, §2, §3
Compound,IC50 [1],IC50 [2],IC50 [3],IC50 [4],IC50 [5],IC50 [6],IC50 [7],IC50 [8],IC50 [9],melting point
"O=C1C(=Cc2ccc(F)c(F)c2)CSCC1=Cc1ccc(F)c(F)c1 [Compound 2f, 3,5-Bis(3,4-difluorobenzylidene)tetrahydro-4H-thiopyran-4-one]",2.9 µM,2.4 to 6.2 µM,5.9 µM,2.4 µM,5.1 µM,> 10 µM,> 10 µM,2 µM,6.2 µM,
"COc1ccccc1C=C1CSCC(=Cc2ccccc2OC)C1=O [Compound 2d, 3,5-Bis(2-methoxybenzylidene)tetrahydro-4H-thiopyran-4-one]",> 10 µM,,5.8 µM,7.1 µM,6.9 µM,> 10 µM,> 10 µM,9.7 µM,5.3 µM,120 to 121 °C
"COc1ccccc1C=C1CCCC(=Cc2ccccc2OC)C1=O [Compound 2a, 2,6-Bis(2-methoxybenzylidene)cyclohexanone]",> 10 µM,,> 10 µM,> 10 µM,> 10 µM,> 10 µM,> 10 µM,> 20 µM,> 10 µM,
"O=C1C(=Cc2ccccc2Br)CCCC1=Cc1ccccc1Br [Compound 2b, 2,6-Bis(2-bromobenzylidene)cyclohexanone]",8.9 µM,,> 10 µM,> 10 µM,> 10 µM,> 10 µM,> 10 µM,> 20 µM,7.8 µM,
"O=C1C(=Cc2ccc(F)c(F)c2)CCCC1=Cc1ccc(F)c(F)c1 [Compound 2c, 2,6-Bis(3,4-difluorobenzylidene)cyclohexanone]",3.2 µM,,3.7 µM,2.6 µM,3.3 µM,3.3 µM,5.4 µM,12.9 µM,3.3 µM,90 to 91 °C
"O=c1[nH]cc(F)c(=O)[nH]1 [Compound 5-FU, 5-fluorouracil, reference compound]",> 10 µM,,4.6 µM,2.9 µM,3.3 µM,> 10 µM,> 10 µM,> 20 µM,8.6 µM,
